From patent publication US20230241057A1, “COMPOUNDS FOR THE PREVENTION, TREATMENT AND DIAGNOSIS OF THROMBI” (INSERM (INSTITUT NATIONAL DE LA SANTÉ ET DE LA RECHERCHE …, priority 2020, published 2023)

How the values were obtained:
[1] = test system: blood platelets; test: Platelet adhesion to coated nitinol disks, phalloidin-AlexaFluor 488 staining; type: cell-based; settings: for Platelet binding (% of max): coated nitinol disks immersed 10 min in blood withdrawn in PPAK, mean±SEM, 6/coating
From the text: (§1) Nitinol disks are left untouched (bare metal) or coated with the tested chromatin ligands following a polydopamine, DBCO-PEG4-amine and azide derivative ligand sequential dip-coating layering procedure.
(§2) Each dot corresponds to the mean binding (% of max, mean±SEM) of chromatin (X-axis) and platelet (Y-axix) with the standard error bars parallel to the respective axis.
(§3) Different linkers were combined with piperaquine and the resulting azide derivatives were used for coating nitinol disks (N=6 for each compound), following the described 3-step dip-coating procedure. Platelet adhesion (left panel) was evaluated by analyzing the surface and intensity of the phalloidin staining (green fluorescence) after immersion of the disks (N^o=6/coating) for 10 min in blood withdrawn in PPAK (thrombin inhibitor providing a transient anticoagulation). The binding of extracellular chromatin was evaluated by applying for 3 minutes the disks on the bottom of wells in which fresh human neutrophils were stimulated with nigericin for 4 hours, to promote the formation of neutrophil extracellular traps (NETs). Extracellular chromatin was stained with the cell impermeant nuclear dye Sytox Green.

[2] = test system: extracellular chromatin (NETs); test: Extracellular chromatin (NETs) binding to coated nitinol disks, Sytox Green staining; set-up: species or system human; settings: for Chomatin binding (% of max): coated nitinol disks applied 3 minutes on nigericin-stimulated human neutrophils, mean±SEM, 6/coating; for Chromatin/Platelet binding ratio: ratio of chromatin binding to platelet binding (% of max)
From the text: as §1
Extracellular chromatin adhering to the disk surface was stained with the cell impermeant nuclear dye Sytox Green.
as §2, §3

[3] = test system: thrombus material (DNA and proteins); settings: coated nitinol disks vs bare metal; thrombus slice 5 minutes at 37° C. in human plasma; Hoechst 33342 / Evans Blue staining
Protocol: Polydopamine (1 mg/ml in tris buffer, pH 8.5, 22±2 hours)
A fresh thrombus was prepared with human whole blood additioned with PMA 100 nM and ionomycin 1 μM to promote strong leukocyte activation leading to the release of extracellular chromatin within the thrombus. Slice of the same thrombus were layered onto coated and bare metal disks in the wells of a 48-well plate, covered with human plasma and incubated at 37° C. on an orbital shaker for 5 minutes. The thrombus slices were mechanically removed using tweezers, the disk washed in PBS and stained with a solution made of Hoechst 33342 (1 μg/ml, to stain DNA) and Evans Blue (3%, to stain proteins) in PBS for 5 minutes. […] The image analysis was performed using the Image J open software.

[4] = coated disk compared to bare metal

Row | Compound | Platelet binding (example disk image, in words) [1, 4] | Platelet binding (% of max) [1] | Chromatin binding (example disk image, in words) [2, 4] | Chomatin binding (% of max) [2] | Chromatin/Platelet binding ratio [2] | DNA and proteins captured from the thrombus (Integrated Density) [3]
1 | [N-]=[N+]=NCCOCCOCCNC(=O)c1cc2cc(N(CCCl)CCCl)ccc2o1 [MBF, N-(2-(2-(2-azidoethoxy)ethoxy)ethyl)-5-(bis(2-chloroethyl)amino)benzofuran-2-carboxamide] | low platelet binding | 23.18 ± 4.05 % of max | high | 66.07 ± 13.21 % of max | 2.85 | 
2 | [N-]=[N+]=NCCOCCOCCNC(=O)CCc1ccc(N(CCCl)CCCl)cc1 [PPM, N-(2-(2-(2-azidoethoxy)ethoxy)ethyl)-3-(4-(bis(2-chloroethyl)amino)phenyl)propanamide] |  | 48.8 ± 5.59 % of max |  | 36.75 ± 5.78 % of max | 0.75 | 
3 | O=C(O)c1cn(C2CC2)c2cc(N3CCNCC3)c(F)cc2c1=O [Ciprofloxacin, reference compound] |  | 27.57 ± 3.22 % of max |  | 23.63 ± 9.59 % of max |  | 
4 | CCCCCOCCCCCN=[N+]=[N-] [Pipe-2] |  | 16 ± 5.78 % of max |  | 57.5 7.05 % of max | 3.59 | 
5 | CSc1ccc2c(c1)N(CCC1CCCCN1C)c1ccccc1S2 (centres unmarked) [thioridazine] |  |  |  |  |  | capture more DNA and proteins
6 | Cn1cc(NC(=O)c2cc(NC(=O)c3cc(NC=O)cn3C)cn2C)cc1C(=O)NCCC(=N)N [Distamycin, reference compound] |  | 12.42 ± 1.72 % of max |  | 12.26 ± 4.14 % of max | 0.99 | 
